According to patent US11821905B2, “Biomarkers of vascular disease” (Arterez, Inc., priority 2015, dated 2023):

What was measured:
Format in all cases: in vivo, mouse
[1] = tested on: C57/BI6 mice; assay: Histology disease score (Oil Red O, plaque, fibrous tissue, inflammation), Example 1; conditions: FIG. 9, gavage 150 μmol/kg, sacrifice days 10, 15, 20
Procedure: For the pilot study, 48 ten week old male C57/BI6 mice were obtained from Jackson Laboratories. Three mice were raised from 6 weeks on a regular diet and served as controls, and the remaining 45 were raised on a 60% fat diet (D12451, DIO series diet, Opensource Diets). For the bacterial dosage test, 16 ten week old male C57/BI6 mice were divided into 4 treatment groups and maintained on a normal diet.
3,3′,4,4′-Tetrachlorobiphenyl (PCB-77) was obtained from Neosyn Laboratories. 100 mg of the dry chemical was suspended in 15.22 ml of corn oil to deliver 150 μmol/kg in 0.2 ml per mouse. Porphyromonas gingivalis 381 (ATCC 33277) was obtained from ATCC. The bacteria were stored frozen prior to use. […] A microplate reader was used to measure the optical density at 600 nm to determine the concentration of bacteria. […]
The hearts were prepared as frozen sections. […] Multiple 10 μm sections at the level of the aortic sinus were analyzed for the presence of oil Red O lipid staining, plaque size, amount of fibrous tissue, and inflammation. The percentage of the lumen occupied by the first three features was calculated using Image Pro Plus. […] The level of inflammation in each section was scored on the following scale: 0=no inflammatory cells observed, 1=few macrophages with no giant cells, 2=foam cells present, 3=foam cells with cholesterol, 4=foam cells, giant cells, and cholesterol present. […]

[2] = tested on: C57/BI6 mice; assay: Pathology of arterial wall, murine model of atherosclerosis, Example 2; conditions: FIGS. 14A, 14B; positive control group (High fat diet, PCB)
Text: (§1) A novel model of atherosclerosis in mice was developed, using a high fat diet and administration of a polychlorinated biphenyl (3,3′,4,4′-Tetrachlorobiphenyl; PCB-77) that promotes both obesity and atherosclerosis and the additional oral administration of a bacteria responsible for tooth decay, Porphyromonas gingivalis 381 (ATCC 33277). The objective of this study was to examine the association of biomarkers with the murine model of atherosclerosis in mice treated with a strategy to protect and repair endothelial glycocalyx. Eighty-four (84) ten week old male C57/BI6 mice were obtained from Jackson Laboratories. Thirty-two mice were raised from 6 weeks on a regular diet and served as controls, and the remaining mice were raised on a 60% fat diet (D12451, DIO series diet, Opensource Diets). 3,3′,4,4′-Tetrachlorobiphenyl (PCB-77) was obtained from Neosyn Laboratories. The dry chemical was suspended in 15.22 ml of corn oil to deliver 200 μmol/kg in 0.2 ml by gavage per mouse.
The mice were sacrificed on days 4, 11, or 18 according to the experimental plan (three each from groups). The animals were anesthetized by intraperitoneal injection of 90 mg/kg Ketamine and 8 mg/kg Xylazine, and Isoflurane gas anesthesia. Blood was collected by retro-orbital bleeding or from the heart and mixed with 50 mg/ml heparin to prevent clotting. […]

[3] = tested on: Hyaluronan Synthase 1 (HAS-1); assay: Hyaluronan Synthase 1 (HAS-1) ELISA on plasma, murine model of atherosclerosis, Example 2; conditions: FIG. 10; high fat diet, PCB on Day 1 and 3, sacrificed at Day 4
Text: as §1
(§2) Four test kits were used to analyze the collected plasma samples: Heparan Sulfate ELISA and Hyaluronan Synthase 1 (HAS-1) ELISA (Antibodies-Online), Total Plasminogen Activation Inhibitor-1 (PAI-1) ELISA (Molecular-Innovive) and Syndecan-1 (SDC1) ELISA (USCN, Houston, Tex.). […]

[4] = tested on: Syndecan-1 (SDC1); assay: Syndecan-1 (SDC1) ELISA on plasma, murine model of atherosclerosis, Example 2; conditions: FIG. 13; mice treated PCB-77 and Porphyromonas gingivalis; high degree of variability
Text: as §1, §2

[5] = tested on: Heparan Sulfate (HS); assay: Heparan Sulfate ELISA on plasma, murine model of atherosclerosis, Example 2; conditions: FIG. 11; mice treated PCB-77 and Porphyromonas gingivalis
Text: as §1, §2

`Clc1ccc(-c2ccc(Cl)c(Cl)c2)cc1Cl` [PCB-77, 3,3′,4,4′-Tetrachlorobiphenyl] was tested, and the “average disease scores for each group and time point (inflammation and plaque)” value [1] was “most significant risk factor to producing inflammation and plaque”, the “pathology of arterial wall” value [2] was “presence of a pathology consistent with plaque” and the HAS-1 levels [3] was “highest HAS-1 levels”. For the same compound, the SDC-1 level [4] was “elevation in SDC-1” and the “Heparan Sulfate (HS) level” value [5] was “elevation in HS”.
